From the NIST ThermoML archive (doi:10.1016/j.jct.2018.07.004)
Values joined by “and” are separate entries in the source; they are usually repeats but may differ in a detail not shown here. Equal values may be shown once. ± gives the expanded uncertainty stated by the source.

Settings: Calculated from knudsen effusion weight loss

Compound: c1ccc(-c2cc(-c3ccccc3)cc(-c3ccccc3)c2)cc1 [1,3,5-triphenylbenzene]
- vapor or sublimation pressure (408.04 K, Crystal): 0.000144 ± 7.5e-06 kPa
- vapor or sublimation pressure (408.05 K, Crystal): 0.0001488 ± 7.3e-06 kPa
- vapor or sublimation pressure (408.16 K, Crystal): 0.0001536 ± 7.5e-06 kPa
- vapor or sublimation pressure (413.04 K, Crystal): 0.0002384 ± 1.2e-05 kPa
- vapor or sublimation pressure (413.05 K, Crystal): 0.000247 ± 1.2e-05 kPa
- vapor or sublimation pressure (413.16 K, Crystal): 0.0002528 ± 1.2e-05 kPa
- vapor or sublimation pressure (418.03 K, Crystal): 0.0003878 ± 2.1e-05 kPa
- vapor or sublimation pressure (418.05 K, Crystal): 0.0004034 ± 2e-05 kPa
- vapor or sublimation pressure (418.15 K, Crystal): 0.0004157 ± 2e-05 kPa
- vapor or sublimation pressure (423.03 K, Crystal): 0.0006219 ± 3.3e-05 kPa and 0.0006345 ± 3.2e-05 kPa
- vapor or sublimation pressure (423.04 K, Crystal): 0.0006477 ± 3.2e-05 kPa
- vapor or sublimation pressure (423.16 K, Crystal): 0.0006722 ± 3.3e-05 kPa
- vapor or sublimation pressure (428.03 K, Crystal): 0.0009832 ± 5.6e-05 kPa
- vapor or sublimation pressure (428.04 K, Crystal): 0.001026 ± 8.3e-05 kPa
- vapor or sublimation pressure (428.16 K, Crystal): 0.001081 ± 8.8e-05 kPa

Compound: CCn1cc[n+](C)c1.O=S(=O)([N-]S(=O)(=O)C(F)(F)F)C(F)(F)F
- vapor or sublimation pressure (433.05 K, Liquid): 2.8e-06 ± 3.2e-06 kPa
- vapor or sublimation pressure (433.1 K, Liquid): 3e-06 ± 3.2e-06 kPa
- vapor or sublimation pressure (438.04 K, Liquid): 4.2e-06 ± 3.2e-06 kPa
- vapor or sublimation pressure (438.1 K, Liquid): 4.3e-06 ± 3.2e-06 kPa
- vapor or sublimation pressure (438.12 K, Liquid): 4.5e-06 ± 3.2e-06 kPa
- vapor or sublimation pressure (443.04 K, Liquid): 5.9e-06 ± 3.2e-06 kPa
- vapor or sublimation pressure (443.09 K, Liquid): 6.3e-06 ± 3.2e-06 kPa
- vapor or sublimation pressure (443.12 K, Liquid): 6.3e-06 ± 3.2e-06 kPa
- vapor or sublimation pressure (448.03 K, Liquid): 8.4e-06 ± 3.2e-06 kPa
- vapor or sublimation pressure (448.09 K, Liquid): 8.8e-06 ± 3.2e-06 kPa
- vapor or sublimation pressure (448.12 K, Liquid): 8.9e-06 ± 3.2e-06 kPa
- vapor or sublimation pressure (453.03 K, Liquid): 1.18e-05 ± 3.2e-06 kPa
- vapor or sublimation pressure (453.09 K, Liquid): 1.23e-05 ± 3.2e-06 kPa
- vapor or sublimation pressure (453.11 K, Liquid): 1.25e-05 ± 3.2e-06 kPa and 1.21e-05 ± 3.2e-06 kPa
- vapor or sublimation pressure (453.12 K, Liquid): 1.25e-05 ± 3.2e-06 kPa
- vapor or sublimation pressure (458.01 K, Liquid): 1.71e-05 ± 3.2e-06 kPa
- vapor or sublimation pressure (458.02 K, Liquid): 1.66e-05 ± 3.2e-06 kPa
- vapor or sublimation pressure (458.09 K, Liquid): 1.72e-05 ± 3.2e-06 kPa
- vapor or sublimation pressure (458.11 K, Liquid): 1.76e-05 ± 3.3e-06 kPa
- vapor or sublimation pressure (458.13 K, Liquid): 1.72e-05 ± 3.2e-06 kPa
- vapor or sublimation pressure (463.05 K, Liquid): 2.29e-05 ± 3.3e-06 kPa
- vapor or sublimation pressure (463.08 K, Liquid): 2.39e-05 ± 3.3e-06 kPa
- vapor or sublimation pressure (463.1 K, Liquid): 2.45e-05 ± 3.3e-06 kPa and 2.42e-05 ± 3.3e-06 kPa
- vapor or sublimation pressure (463.12 K, Liquid): 2.38e-05 ± 3.3e-06 kPa
- vapor or sublimation pressure (463.13 K, Liquid): 2.39e-05 ± 3.3e-06 kPa
- vapor or sublimation pressure (468.04 K, Liquid): 3.16e-05 ± 3.5e-06 kPa
- vapor or sublimation pressure (468.08 K, Liquid): 3.27e-05 ± 3.4e-06 kPa
- vapor or sublimation pressure (468.1 K, Liquid): 3.41e-05 ± 3.4e-06 kPa
- vapor or sublimation pressure (468.11 K, Liquid): 3.33e-05 ± 3.4e-06 kPa
- vapor or sublimation pressure (468.12 K, Liquid): 3.29e-05 ± 3.5e-06 kPa
- vapor or sublimation pressure (468.13 K, Liquid): 3.32e-05 ± 3.5e-06 kPa
- vapor or sublimation pressure (473.04 K, Liquid): 4.32e-05 ± 3.9e-06 kPa
- vapor or sublimation pressure (473.07 K, Liquid): 4.5e-05 ± 3.6e-06 kPa
- vapor or sublimation pressure (473.1 K, Liquid): 4.61e-05 ± 3.6e-06 kPa
- vapor or sublimation pressure (473.12 K, Liquid): 4.51e-05 ± 3.7e-06 kPa
- vapor or sublimation pressure (473.13 K, Liquid): 4.53e-05 ± 3.7e-06 kPa
- vapor or sublimation pressure (473.14 K, Liquid): 4.69e-05 ± 3.9e-06 kPa
- vapor or sublimation pressure (478.04 K, Liquid): 5.84e-05 ± 4e-06 kPa
- vapor or sublimation pressure (478.07 K, Liquid): 6.13e-05 ± 3.9e-06 kPa
- vapor or sublimation pressure (478.09 K, Liquid): 6.25e-05 ± 3.9e-06 kPa
- vapor or sublimation pressure (478.12 K, Liquid): 6.08e-05 ± 4.1e-06 kPa and 6.16e-05 ± 4.2e-06 kPa
- vapor or sublimation pressure (478.13 K, Liquid): 6.12e-05 ± 4.1e-06 kPa
- vapor or sublimation pressure (483.04 K, Liquid): 7.83e-05 ± 4.8e-06 kPa
- vapor or sublimation pressure (483.06 K, Liquid): 8.23e-05 ± 4.4e-06 kPa
- vapor or sublimation pressure (483.08 K, Liquid): 8.4e-05 ± 4.4e-06 kPa
- vapor or sublimation pressure (483.11 K, Liquid): 8.32e-05 ± 4.4e-06 kPa and 8.24e-05 ± 4.4e-06 kPa
- vapor or sublimation pressure (483.12 K, Liquid): 8.26e-05 ± 4.9e-06 kPa
- vapor or sublimation pressure (488.05 K, Liquid): 0.0001107 ± 5.3e-06 kPa
- vapor or sublimation pressure (488.06 K, Liquid): 0.0001105 ± 5.3e-06 kPa
- vapor or sublimation pressure (488.08 K, Liquid): 0.000112 ± 5.3e-06 kPa
- vapor or sublimation pressure (488.11 K, Liquid): 0.0001112 ± 5.3e-06 kPa and 0.0001115 ± 5.3e-06 kPa
- vapor or sublimation pressure (493.05 K, Liquid): 0.0001465 ± 7e-06 kPa
- vapor or sublimation pressure (493.07 K, Liquid): 0.0001477 ± 7e-06 kPa
- vapor or sublimation pressure (493.1 K, Liquid): 0.0001477 ± 7e-06 kPa
- vapor or sublimation pressure (493.11 K, Liquid): 0.0001477 ± 7e-06 kPa
- vapor or sublimation pressure (498.1 K, Liquid): 0.0001931 ± 9.2e-06 kPa
- vapor or sublimation pressure (498.11 K, Liquid): 0.0001943 ± 9.2e-06 kPa
- vapor or sublimation pressure (503.1 K, Liquid): 0.0002516 ± 1.2e-05 kPa and 0.0002533 ± 1.2e-05 kPa
